How the values were obtained:
BT-474 Cells = test: Cell proliferation inhibition, CTG (CelltiterGlo) method, alone or combined with fulvestrant; format: cell-based; conditions: compound alone; for IC50: Homo sapiens, BT-474, 168 h, 7 days; for Maximum Inhibition Rate on BT-474 Cells: maximum value fitted by GraphPad Prism 8
Experimental: (§1) a). BT-474 cells were cultured in Hybri-Care medium supplemented with 1% antibiotics and 10% FBS, and incubated in the condition of 37°C with 5% CO2; b). MCF-7 cells were cultured in EMEM medium supplemented with 1% antibiotics, 0.01 mg/mL insulin, and 10% FBS, and incubated in the condition of 37°C with 5% CO2; c). ZR-75-1 cells were cultured in RPMI-1640 medium supplemented with 1% antibiotics and 10% FBS, and incubated in the condition of 37°C with 5% CO2; d). T47D cells were cultured in RPMI-1640 medium supplemented with 1% antibiotics, 0.2 U/mL insulin, and 10% FBS, and incubated in the condition of 37°C with 5% CO2; e) CAMA-1 cells were cultured in EMEM medium supplemented with 1% antibiotics and 10% FBS, and incubated in the condition of 37°C with 5% CO2.
(§2) a). Cells were routinely cultured until reaching 80%-90% confluence and when the required cell number was reached, they were harvested; b). Resuspended in the corresponding medium, counted, and prepared into a cell suspension with appropriate density; c). The cell suspension was added to a 384-well plate at 40 µL per well. Table 1. Plating densities of different cell lines
(§3) d). The cells were cultured overnight in an incubator at 37°C with 5% CO2 .
(§4) a). The compound of Formula (A) was serially diluted 3-fold for 10 concentrations starting from a stock solution of 60 mM (using the monofumarate dihydrate of the compound of Formula (A), with the concentration calculated based on the free base of the compound of Formula (A); the compound of Formula (A) or salt thereof was prepared with reference to the preparation method disclosed in WO2022017448A1); b). Fulvestrant was diluted from 10 mM to 2 mM with DMSO, then serially diluted 3-fold for 10 concentrations; c). Fulvestrant was diluted from 2 mM to 0.2 mM with DMSO, then serially diluted 3-fold for 10 concentrations; d). Fulvestrant was diluted from 0.2 mM to 2 µM with DMSO; e). Fulvestrant was diluted from 2 µM to 0.8 µM with DMSO; f). Fulvestrant was diluted from 2 µM to 0.3 µM with DMSO; g) Fulvestrant was diluted from 0.8 µM to 0.08 µM with DMSO; h). The final concentration of DMSO was 0.1%; i). Cells supplemented with DMSO served as control wells for high reading values; j). Cell-free medium served as control wells for low reading values.
(§5) 24 Hours after BT474 and ZR-75-1 cells were plated, the compound was administered alone. For the compound of Formula (A): 20 nL of the compound prepared in step 2.3 a) + 20 nL of DMSO were added. For the compound fulvestrant: 20 nL of the compound prepared in step 2.3 b) + 20 nL of DMSO were added.
(§6) 24 Hours after BT474 and ZR-75-1 cells were plated, the compound of Formula (A) was administered in combination with fulvestrant: 20 nL of the compound prepared in step 2.3 a) + 20 nL of the compounds prepared in step 2.3 b) and d).
(§7) Fulvestrant for point-to-point combination (nM): 1000, 333, 111, 37, 12.3, 4.1, 1.37, 0.46, 0.15, 0.05, which are respectively combined with the gradient concentrations of the compound of Formula (A); Fulvestrant for single-concentration combination (nM): 1000, 1, which are respectively combined with the gradient concentrations of the compound of Formula (A).
(§8) The compound of Formula (A) (nM): 30000, 10000, 3333, 1111, 370, 123, 41.2, 13.7, 4.57, 1.52; • Fulvestrant for point-to-point combination (nM): 100, 33.3, 11.1, 3.7, 1.23, 0.41, 0.14, 0.046, 0.015, 0.005, which are respectively combined with the gradient concentrations of the compound of Formula (A); • Fulvestrant for single-concentration combination (nM): 1.2, 0.14, which are respectively combined with the gradient concentrations of the compound of Formula (A). d). The cell culture plates were centrifuged at 1000 rpm for 1 min, then placed in an incubator at 37°C with 5% CO2 for 7 days.
(§9) a). 40 µL of CTG reagent (CelltiterGlo kit) was added to each well, placed on a rapid shaker for 2 minutes of oscillation, centrifuged at 1000 rpm for 1 min, and then left at room temperature in the dark for 30 minutes; b). […]

ZR-75-1 Cells = test: as above; format: cell-based; conditions: compound alone; for IC50: Homo sapiens, ZR-75-1, 168 h, 7 days; for Maximum Inhibition Rate on ZR-75-1 Cells: maximum value fitted by GraphPad Prism 8
Experimental: as §1, §2, §3, §4, §5, §6, §7, §8, §9

SMILES | IC50 (BT-474 Cells) [µM] | Maximum Inhibition Rate on BT-474 Cells (BT-474 Cells) [%] | IC50 (ZR-75-1 Cells) [µM] | Maximum Inhibition Rate on ZR-75-1 Cells (ZR-75-1 Cells) [%]
C[C@]12CC[C@@H]3c4ccc(O)cc4C[C@@H](CCCCCCCCC[S+]([O-])CCCC(F)(F)C(F)(F)F)[C@H]3[C@@H]1CC[C@@H]2O (some centres unmarked) [Fulvestrant, reference compound] | > 1 | 43.33 | > 1 | 43.96
CC(C)NC[C@@H](C(=O)N1CCN(c2ncnc3c2[C@H](C)CC(=O)N3)[C@H]2C[C@H]21)c1ccc(Cl)cc1 [The compound of Formula (A), (R)-4-((1S,6R)-5-((S)-2-(4-chlorophenyl)-3-(isopropylamino)propanoyl)-2,5-diazabicyclo[4.1.0]heptan-2-yl)-5-methyl-5,8-dihydropyrido[2,3-d]pyrimidin-7(6H)-one] | 0.668 | 84.62 | 2.17 | 92.45

— patent EP4729061A1, “USE OF AKT INHIBITOR IN PREPARATION OF DRUG FOR PREVENTING OR TREATING BREAST CANCER” (Nanjing Chia Tai Tianqing Pharmaceutical Co., Ltd., priority 2023, dated 2024)
